Data on twelve molecules can be found in patent US12391701B2, “Chromene-based compounds, methods and uses thereof” (University of Minho, priority 2019, dated 2025).

What is called IC50 is the concentration that inhibits the measured activity by half.

Read-outs that look alike come from different tables or passages of the source.

What all share (assay type): cell-based
Test [1] deals with non-neoplastic cell line (HK2). The experiment in a line: Cell viability, HK2. As for the experimental part: (§1) In an embodiment, the antiproliferative activity of the compounds was further determined against renal carcinoma cell lines and non-neoplastic kidney cell line.
(§2) In an embodiment, three human breast cancer cell lines Hs578T, MDA-MB-468 and MCF-7, and a normal breast cell line MCF-10A, were obtained from ATCC (American Type Culture Collection). The cancer cell lines were cultured in Dulbecco's modified Eagle medium, 4.5 g/l glucose (DMEM, Gibco) supplemented with 10% heating inactivated Fetal Bovine Serum (FBS, Gibco) and 1% antibiotic solution (Penicillin-Streptomycin, Gibco). The normal cell line was cultured in Dulbecco's Modified Eagle Medium: Nutrient Mixture F-12 (DMEM/F12, Gibco) supplemented with 5% heating inactivated FBS (Gibco), 1% antibiotic solution (Penicillin-Streptomycin, Gibco), 1% steroid hormone (Hydrocortisone, Sigma-Aldrich), 0.1% peptide hormone (Insulin, Sigma-Aldrich) and 0.01% protein complex (Cholera Toxin, Gibco). Two distinct human acute myeloid leukemia (AML) cell lines, HL-60 (FAB M2) and KG-1 (erythroleukemia-FAB M6), and one human lymphoblastic leukemia (ALL) cell line, Jurkat (T cell type), were also used. These three cell lines were obtained from German Collection of Microorganisms and Cell cultures (DMSZ®, Deutsche Sammlung von Mikroorganismen and Zellkulturen in German). Cells were cultured in RPMI 1640 medium (Biochrom®-Merck Millipore) supplemented with 10% heating inactivated FBS (Biochrom®-Merck Millipore) and 1% antibiotic/antimitotic mixture (Invitrogen®). Three human glioblastoma (GBM) cell line models, two established and commercially available cell lines (U87MG and GAMG, kind gift from Rui M. Reis) and one primary GBM culture (GLIB) were also used. GBM cells were cultures in DMEM (Biochrom-Merck Millipore), all supplemented with 10% FBS. The Renal cell carcinoma cell lines A498, 786-O, Caki-2 and HK2 were obtained from ATCC. The cancer cell line A498 was cultured in MEM medium (Biochrom®-Merck Millipore), 786-O was cultured in RPMI 1640 medium (Biochrom®-Merck Millipore), Caki-2 was cultured in Mc Coys medium (Biochrom®-Merck Millipore) and HK2 was cultured in RPMI 1640 medium (Biochrom®-Merck Millipore). All the media were supplemented with 10% heat inactivated FBS (Biochrom®-Merck Millipore) and 1% antibiotic/antimitotic mixture (Invitrogen®). All cells were grown in a humidified incubator at 37° C. and 5% CO2. For all assays, DMSO (Dimethyl Sulfoxide, Sigma-Aldrich) controls were used.
(§3) In an embodiment, cell viability assays were performed. MCF-7, Hs578T and MCF-10A cells were plated in triplicate in 96-multiwell culture plates, at 3000 cells per mL, or 5000 cells per mL for MDA-MB-468 (100 μL/well). The cells were then allowed to adhere in complete medium, over a period of 18-20 hours. Cells were subsequently treated with 7 different concentrations (from 0.1 to 40 μM or 5 to 60 μM) of compounds or control in fresh medium. HL-60, KG-1 and Jurkat cell lines were plated in 96-multiwell culture plates at 50.000 cells/100 μL per well and treated with different concentrations (from 0.001 to 2 μM) of the compounds described (or control). Cells were plated, in triplicate, at an initial density of 2000 cells/well for GAMG, 4000 cells/well for GL18 and 6000 cells/well for U87MG, in 96-well plates, and allowed to adhere for 18-20 hours. Cells were then treated with different concentrations of the compounds (0.005 to 100 μM) or with control. A498 and 786-O cells were plated at 2000 cells per mL, Caki-2 cells were plated at 3000 cells per mL and HK2 cells were plated at 2000 cells per mL in triplicate, in 96-multiwell culture plates (100 μL/well), and allowed to adhere over a period of 18-20 hours in complete medium. The cells were then treated with 7 different concentrations (from 0.1 to 40 μM or 5 to 60 μM) of compounds or control in fresh medium. […]

The test system of test [2] is non-neoplastic cell line MCF-10A. The experiment in a line: Cell viability assay (MTS), MCF-10A. To be noted: Homo sapiens, 72 h incubation. As for the experimental part:
(§4) In an embodiment, the cell growth inhibition and IC50 values of the synthesised and isolated chromene-based compounds were determined as part of the evaluation of the antiproliferative activity of the isolated agents. A complete study on the structure-activity relationship was performed for all the synthesised compounds. The antiproliferative activity against MCF-7 breast cancer cell lines were analysed. […] The non-neoplastic cell line MCF-10A was also used to determine the selectivity of the compounds for the tumour cells. For compounds with an IC50 value (concentration required to reduce cell viability by 50%) higher than 20 μM, the IC50 value was not determined. Selectivity index (SI) was calculated in order to evaluate the cytotoxicity of the tested compounds.
as §2
(§5) In an embodiment, cell viability assays were performed. MCF-7, Hs578T and MCF-10A cells were plated in triplicate in 96-multiwell culture plates, at 3000 cells […], or 5000 cells […] for MDA-MB-468 (100 μL/well). The cells were then allowed to adhere in complete medium, over a period of 18-20 hours. Cells were subsequently treated with 7 different concentrations (from 0.1 to 40 μM or 5 to 60 μM) of compounds or control in fresh medium. HL-60, KG-1 and Jurkat cell lines were plated in 96-multiwell culture plates at 50.000 cells/100 μL per well and treated with different concentrations (from 0.001 to 2 μM) of the compounds described (or control). Cells were plated, in triplicate, at an initial density of 2000 cells/well for GAMG, 4000 cells/well for GL18 and 6000 cells/well for U87MG, in 96-well plates, and allowed to adhere for 18-20 hours. […]

Test [3] relates to breast cancer cell line MCF-7. The experiment in a line: Cell viability assay (MTS), MCF-7. To be noted: Homo sapiens, MCF7; 72 h incubation. As for the experimental part:
as §4, §2, §5

Test [4] relates to renal carcinoma cell line Caki-2. The experiment in a line: Cell viability (sulforhodamine B), Caki-2. As to conditions: Homo sapiens, Table 5. As for the experimental part: as §1, §2, §3
The subject of test [5] is renal carcinoma cell line 786-O. The test is described as follows: Cell viability (sulforhodamine B), 786-O. To be noted: Homo sapiens, 786-0; Table 5. As to the method: as §1, §2, §3
The mark [6] stands for this setting: Table 6, read-out: IC50 (μM) HK2.

`COc1cccc2c1Oc1nc(-c3ccccc3)[nH]c1C2` [MC350, 5-methoxy-2-phenyl-3,9-dihydrochromeno[2,3-d]imidazoles]: the IC50 in test [1] (Table 5, read-out: IC50 HK2) is 21.5 µM; in test [1] (setting [6]), 21.5 µM; in test [2], 8.46 µM; in test [3], 0.74 µM; in test [4] it was 0.394 µM; in test [5] it was 0.513 µM.

Consider `COc1cccc2c1Oc1nc(-c3ccccc3F)[nH]c1C2C1c2cccc(OC)c2Oc2nc(-c3ccccc3F)[nH]c21` (stereo not drawn) [MC369, 2,2′-bis(2-fluorophenyl)-5,5′-dimethoxy-1,1,9,9′-tetrahydro-9,9′-bichromeno[2,3-]imidazoles], for which the IC50 was 0.83 µM in test [1] (Table 5, read-out: IC50 HK2); more than 20 µM in test [2]; 0.26 µM in test [3]; 0.109 µM in test [4]; 0.053 µM in test [5].

`COc1cccc2c1Oc1nc(-c3ccc(F)cc3)[nH]c1C2C1c2cccc(OC)c2Oc2nc(-c3ccc(F)cc3)[nH]c21` (stereo not drawn) [MC406, 2,2′-bis(4-fluorophenyl)-5,5′-dimethoxy-1,1,9,9′-tetrahydro-9,9′-bichromeno[2,3-]imidazoles]: the IC50 in test [1] (Table 5, read-out: IC50 HK2) was 0.31 µM; in test [2] it was 12.7 µM; in test [3] it was 0.2 µM; in test [4], 0.178 µM; in test [5], 0.084 µM.

For the molecule `COc1cccc2c1Oc1nc(-c3ccccc3F)[nH]c1C2` [MC407, 2-(2-fluorophenyl)-5-methoxy-3,9-dihydrochromeno[2,3-d]imidazoles], the IC50 in test [1] (Table 5, read-out: IC50 HK2) amounted to 1.03 µM; in test [2], 3.93 µM; in test [3] it was 0.67 µM; in test [4] it was 0.433 µM; in test [5], 0.673 µM.

Regarding `COc1cccc2c1Oc1nc(-c3ccc(Br)cc3)[nH]c1C2` [MC408, 2-(4-bromophenyl)-5-methoxy-3,9-dihydrochromeno[2,3-d]imidazoles], the IC50 was determined as 3.49 µM in test [1] (Table 5, read-out: IC50 HK2); 3.49 µM in test [1] (setting [6]); 2.99 µM in test [2]; 0.62 µM in test [3]; 0.089 µM in test [4]; 0.064 µM in test [5].

On to `COc1cccc2c1Oc1nc(-c3ccc(F)cc3)[nH]c1C2` [MC409, 2-(4-fluorophenyl)-5-methoxy-3,9-dihydrochromeno[2,3-d]imidazoles], for which the IC50 in test [1] (Table 5, read-out: IC50 HK2) was 3.49 µM; in test [1] (setting [6]) it was 3.49 µM; in test [2], 14.3 µM; in test [3], 0.65 µM; in test [4], 0.359 µM; in test [5] it was 0.495 µM.

On to `COc1cccc2c1Oc1nc(-c3cc(F)cc(F)c3O)[nH]c1C2` [MC410, 2,4-difluoro-6-(5-methoxy-3,9-dihydrochromeno[2,3-d]imidazol-2-yl)phenol], for which the IC50 in test [1] (Table 5, read-out: IC50 HK2) is 23.1 µM; in test [1] (setting [6]), 23.1 µM; in test [2] it was more than 30 µM; in test [3], 3.53 µM; in test [4] it was 8.53 µM; in test [5], 0.446 µM.

As for `COc1ccccc1-c1nc2c([nH]1)Cc1cccc(OC)c1O2` [MC411, 5-methoxy-2-(2-methoxyphenyl)-3,9-dihydrochromeno[2,3-]imidazoles], the IC50 is 4.73 µM in test [1] (Table 5, read-out: IC50 HK2); 4.73 µM in test [1] (setting [6]); 6.82 µM in test [2]; 1.71 µM in test [3]; 3.96 µM in test [4]; 3.73 µM in test [5].

Regarding `COc1cccc2c1Oc1nc(-c3ccc(O)cc3)[nH]c1C2` [MC413, 4-(5-methoxy-3,9-dihydrochromeno[2,3-d]imidazol-2-yl)phenol], the IC50 in test [1] (Table 5, read-out: IC50 HK2) was 10.3 µM; in test [1] (setting [6]), 10.3 µM; in test [2], more than 20 µM; in test [3], 1.09 µM; in test [4], 0.381 µM; in test [5] it was 0.728 µM.

On to `CCOc1ccc(-c2nc3c([nH]2)Cc2cccc(OC)c2O3)cc1` [MC415, 2-(4-ethoxyphenyl)-5-methoxy-3,9-dihydrochromeno[2,3-d]imidazoles], for which the IC50 was 5.24 µM in test [1] (Table 5, read-out: IC50 HK2); 5.24 µM in test [1] (setting [6]); 1.9 µM in test [2]; 1.64 µM in test [3]; 0.062 µM in test [4]; 0.221 µM in test [5].

On to `COc1ccc(-c2nc3c([nH]2)Cc2cccc(OC)c2O3)c(Br)c1O` [MC416, 2-bromo-6-methoxy-3-(5-methoxy-3,9-dihydrochromeno[2,3-]imidazol-2-yl)phenol], for which the IC50 in test [1] (Table 5, read-out: IC50 HK2) was 4.72 µM; in test [1] (setting [6]) it was 4.72 µM; in test [2], 1.99 µM; in test [3], 1.04 µM; in test [4], 2.54 µM; in test [5] it was 3.14 µM.

As to `COc1cccc2c1Oc1nc(-c3ccc(Br)cc3)[nH]c1C2C1c2cccc(OC)c2Oc2nc(-c3ccc(Br)cc3)[nH]c21` (stereo not drawn) [MC421, 2,2′-bis(4-bromophenyl)-5,5′-dimethoxy-1,1,9,9′-tetrahydro-9,9′-bichromeno[2,3-]imidazoles], the IC50 in test [1] (Table 5, read-out: IC50 HK2) is 2.49 µM; in test [1] (setting [6]), 2.49 µM; in test [2], more than 30 µM; in test [3] it was 0.31 µM; in test [4], 0.431 µM; in test [5] it was 0.077 µM.
